The values below come from patent US8802235B2, “Drug and imaging agent delivery compositions and methods” (priority 2012, dated 2014).

Read-outs that look alike come from different tables or passages of the source.

The subject of one data set is HUVEC cells. Kind of data set: In vitro cytotoxicity (resazurin blue), HUVEC. Type of data set: cell-based, human. As for the experimental part:
(§1) B16F10 (lymphatically metastatic murine melanoma), MDA-MB-231 (human breast cancer), and HUVEC (normal human endothelial) cell lines, were maintained in Dulbecco's modified Eagle's medium (DMEM) supplemented with 1% L-Glutamine and 10% bovine growth serum in 5% CO2 atmosphere. The HER2-expressing murine breast cancer cell line, 4T1.2 Neu was maintained in DMEM supplemented with 1% L-Glutamine, 10% bovine growth serum, and 500 μg/mL of G418 (geneticin) in 5% CO2 atmosphere. The lymphatically metastatic human melanoma cell line, A2058 was maintained in low sodium bicarbonate (1.5 g/L) containing DMEM supplemented with 1% L-Glutamine, 10% bovine growth serum in 5% CO2 atmosphere.
(§2) Prior to cell growth inhibition studies, cells were trypsinized and seeded at 3000 cells/well into 96-well tissue culture plates. After 24 hours, geldanamycin, 17-DMAG, 17-AAG, 17-HEAG, Star-GA (GA basis), or melphalan hydrochloride dilutions in 1×PBS (Fisher BioReagents, pH 7.4) with up to 3% DMSO (final well concentration, for the highest drug concentration) were added to the B16F10, A2058, HUVEC, 4T1.2 Neu, or MDA-MB-231 cells (n=8 or 12, 10 μL/well, 8 or 6 concentrations 10^−10 to 10^−3 M, respectively). Solutions of 10% trichloracetic acid was used as a negative control, media was used as a positive control, and 3% DMSO was used as an additional control (n=8 or 12, 10 μL/well). At 72 h post addition, 10 μL of resazurin blue in PBS was added (5 μM final concentration) to each well. After 3 hours, well fluorescence was measured (λex/λem=560/590 nm) (SpectraMax Gemini, Molecular Devices). IC50s were determined using the nonlinear regression curve fit of a one-site competition (GraphPad Prism 10).
For orientation: The colour change of resazurin is a common sign of viable cells or microbes.

The test system of another data set is 4T1.2 Neu cells. Put plainly: In vitro cytotoxicity (resazurin blue), 4T1.2 Neu. It is filed as cell-based, murine. As to conditions: 72 h, Star-GA on GA basis, read-out: IC50s 4T1.2 Neu. On the procedure: as §1, §2
The next data set relates to B16F10 cells. Put plainly: cells. As to conditions: for IC50: read-out: IC50s B16F10. Type of data set: cell-based, murine. On the procedure: as §1, §2
In a further data set the test system is A2058 cells. Put plainly: In vitro cytotoxicity (resazurin blue), A2058. The following applies: read-out: IC50s A2058. It is filed as cell-based, human. On the procedure: as §1, §2
The next data set has as its system MDA-MB-231 cells. Kind of data set: In vitro cytotoxicity (resazurin blue), MDA-MB-231. Type of data set: cell-based, human. The following applies: 72 h, Star-GA on GA basis, read-out: IC50s MDA-MB-231. On the procedure: as §1
Prior to cell growth inhibition studies, cells were trypsinized and seeded at 3000 cells/well into 96-well tissue culture plates. […] After 3 hours, well fluorescence was measured (λex/λem=560/590 nm) (SpectraMax Gemini, Molecular Devices). IC50s were determined using the nonlinear regression curve fit of a one-site competition (GraphPad Prism 10).

For data set [1], the system named is MDA-1986 cells. Kind of data set: Cell growth inhibition (resazurin blue), MDA-1986. It is filed as cell-based, human. The following applies: 72 hours. On the procedure: (§3) Cell growth inhibition was determined in 96-well plates (3,000 cells/well in 100 μL, 12 replicates/sample) using highly invasive human breast cancer cells, MDA-MB-231, non-metastatic human breast cancer cells, MDA-MB-468, and highly invasive human head and neck squamous cell cancer cells positive for epithelia growth factor receptor, MDA-1986. Drug or conjugate solutions were applied after 24 hours, and 72 hours post-addition, resazurin blue in 10 μL of PBS was applied to each well (final concentration 5 μM).

A further data set relates to MDA-MB-468 cells. Put plainly: Cell growth inhibition (resazurin blue), MDA-MB-468. Type of data set: cell-based, human. The following applies: 72 hours. As for the experimental part: as §3
For data set [2], the system named is MDA-1986 cells. Put plainly: Nitric oxide release (Griess) in cell culture with MDA-1986 cells. It is filed as cell-based, human. On the procedure: The fluorescence intensity was measured between 520 and 550 nm using a fluorescence microplate reader.
The concentration of nitrite, the stable breakdown product of gaseous nitric oxide, was measured using Griess assay as an indirect measurement of nitric oxide concentration in cell culture media. The assay is based on the reaction between sulfanilamide, N-1-napthyethylenediamine dihydrochloride and nitrite, under acidic conditions to produce a […] azo compound.
(Nitrite, measured by Griess reagent, commonly stands in for NO production.)

In a further data set the test system is B16F10 tumors. It is filed as in vivo. As to conditions: for B16F10 tumor response: melphalan i.v. 5 mg/kg, 17-DMAG i.v. 15 mg/kg, Star-GA s.c. 15 mg/kg DMAG equivalent, polymer s.c. equivalent dose, vs non-treated. On the procedure: . The tumors were measured and recorded, the volumes were calculated using the equation: Tumor Volume (mm^3)=0.52×(width)^2×length. When the B16F10 tumors reached 200-350 mm^3 (ca. Days 6-9), mice were randomly divided into five treatment groups: melphalan (i.v., n=5), 17-DMAG (i.v., n=4), star polymer (s.c., n=6), Star-GA (s.c., n=7), or no treatment (n=4) (FIG. 30).
Mice in the melphalan treatment group were injected once with melphalan (5 mg/kg) intravenously via the tail veil under isoflurane anesthesia. The formulation used to treat mice bearing B16F10 tumors was modified slightly from the product insert for ALKERAN (melphalan hydrochloride) for injections into humans. Melphalan was dissolved in concentrated hydrochloric acid (35-38%) to give a 15 mg/mL solution. The melphalan solution was then aliquoted into vials to give 0.75 mg melphalan/vial, and was dried using a speedvac concentrator (Labconoco) for 1.5 hours at 35° C. followed by 1 hour at ambient temperature. The vials containing dry melphalan hydrochloride were sealed and placed at −20° C. until further use. The reconstituted solution was prepared by first pre-sterilizing propylene glycol, 95% ethanol, and 0.02 g/mL sodium citrate solution, using a sterile syringe fitted with a 0.22 μm sterile filter (Millex GP PES membrane sterile filter, Millipore) into a sterile falcon tube. Then the reconstituted solution was prepared by combining 6 mL sterile propylene glycol, 0.52 mL sterile ethanol (95%), and 3.48 mL sodium citrate solution, and the solution was mixed well and filtered a second time with at 0.22 μm sterile filter. Immediately prior to injection, the 150 μL of the sterile reconstituted solution was rapidly added to the melphalan hydrochloride, the vial was immediately shaken vigorously until dissolved, followed by the rapid addition of 150 μL of sterile saline yielding a 2.5 mg/mL melphalan solution. The melphalan was dosed within 10 to 15 minutes after reconstitution to minimize degradation.
17-DMAG was dissolved in sterile DMSO and administered i.v. via the tail vein at a dose of 15 mg/kg (MTD). […]

Data set [3] relates to MDA-1986 human head and neck squamous cell carcinoma. Put plainly: Head and neck tumor model, efficacy of sugar-NO1. It is filed as in vivo, female nude mice.
A further data set concerns 4T1.2 Neu tumors. Put plainly: Anticancer efficacy in 4T1.2 Neu tumor bearing mice. It is filed as in vivo. As to conditions: 17-DMAG i.v. 10 mg/kg, Star-GA s.c. 45 mg/kg. From the text: During cell preparation of the 4T1.2 Neu cells for implantation, G418 free media was used. Prior to tumor implantation, the hair surrounding the right upper portion of the mouse's chest was removed with depilatory cream. […].
Seven week old (18-22 g) female Balb/c mice purchased from Jackson Laboratory (Bar Harbor, Me.) were used in this study. On Day 7, when tumors reached 100-250 mm^3, mice were randomly divided into four treatment groups, consisting of no treatment (n=7), 60% […] (n=5), 17-DMAG (n=7), and Star-GA (n=8). The 17-DMAG was dosed at 10 mg/kg i.v. as a 1:1 sterile DMSO:PBS solution. Star-GA was dosed at 45 mg/kg (17-HEAG basis, 15% loading, 300 mg/kg Star-GA conjugate), in sterile 35% DMSO and 65% PBS, which was divided into two peritumoral injections on either side of the mammary tumor. Finally, the 60% […] was dosed at an equivalent star polymer concentration used for the 45 mg/kg Star-GA (255 mg/kg 60% […]), which was divided into two peritumoral injections onto either side of the mammary tumor. Tumor volumes were monitored and reported every two days (FIG. 33).
To minimize the occurrence of necrotic tails upon dosing 17-DMAG, as observed in the B16F10 in vivo study described in the previous section, 17-DMAG was dosed at 10 mg/kg i.v. in a 1:1 sterile DMSO:PBS solution rather than 15 mg/kg in 100% DMSO.

The conditions of data set [4]: 17-DMAG i.v.; cited from earlier work.
Data set [5] can be described thus: Metastatic analysis of axillary lymph nodes by nodal volume and rtPCR. The following applies: one mouse.
Protocol: The metastatic state of the 4T1.2 Neu tumor model post treatment was assessed by axillary lymph node volume and the nodal HER 2 expression.
The total RNAs from the frozen lymph node samples were extracted using TriZol reagent (Invitrogen). The first-strand cDNA was synthesized using the Omniscript-RT Kit (QIAGEN, Valencia, Calif.). Primers for the Erbb2 (HER2 RT^2 qpCR primer assay, proprietary primer sequence, QIAGEN) and 18S housekeeping gene (forward: 5′-[sequence]-3′ reverse: 5′-[sequence]-3′) (IDT Inc, Coralville, Iowa) were used. The real-time PCR, in a reaction volume of 25 μL, was performed using the SYBR Green Supermix kit with the Bio-Rad iQ5 system (Hercules, Calif.).
During the lymph node harvesting, gross visualization of the organs was made to identify any obvious signs of metastases, growths, or toxicities associated with any of the treatments.
For data set [6] the following is noted: cited from earlier work.
Setting [7] is: 72 h; Star-GA on GA basis; read-out: IC50s HUVEC.

As to `COC1=C2C[C@@H](C)C[C@H](OC)[C@H](O)[C@@H](C)/C=C(\C)[C@H](OC(N)=O)[C@@H](OC)/C=C\C=C(/C)C(=O)NC(=CC1=O)C2=O` [geldanamycin], the IC50 with HUVEC cells (Homo sapiens, HUVEC, 72 h; read-out: IC50s HUVEC) came to 440 nM; with 4T1.2 Neu cells (Mus musculus, 4T1.2), 260 nM; with B16F10 cells (Mus musculus, B16-F10, 72 h, Star-GA on GA basis), 36 nM; with A2058 cells (Homo sapiens, A2058, 72 h, Star-GA on GA basis), 44 nM; with MDA-MB-231 cells (Homo sapiens, MDA-MB-231) it was 963 nM.
For the compound `CC1CN([N+]([O-])=NOc2ccc([N+](=O)[O-])cc2[N+](=O)[O-])CCN1CCO` (stereo not drawn) [NO2, O^2-(2,4-Dinitrophenyl) 1-[[4-(2-hydroxy)ethyl]-3-methylpiperazin-1-yl]diazen-1-ium-1,2-diolate], the IC50 in the data set with MDA-1986 cells [1] was found to be 57000 ± 6000 nM; in the data set on MDA-MB-468 cells, 27000 ± 3000 nM. In the data set with MDA-1986 cells [2], the “Release half-life” value is 9.0 h.
As to `N[C@@H](Cc1ccc(N(CCCl)CCCl)cc1)C(=O)O` [melphalan], the IC50 was 209000 nM in the data set with HUVEC cells (Homo sapiens, HUVEC, 72 h, read-out: IC50s HUVEC); 103000 nM with B16F10 cells (Mus musculus, B16-F10, 72 h); 30000 nM in the data set with A2058 cells (Homo sapiens, A2058, 72 h). Besides, the B16F10 tumor response entry in the data set with B16F10 tumors is listed as “complete response to treatment”.
In the case of `CCOC(=O)N1CCN(/[N+]([O-])=N/Oc2ccc([N+](=O)[O-])cc2[N+](=O)[O-])CC1` [JS-K, O^2-(2,4-Dinitrophenyl) 1-[(4-ethoxycarbonyl)piperazin-1-yl]diazen-1ium-1,2-diolate], in the data set with MDA-1986 cells [1], the IC50 amounted to 16000 ± 2000 nM. For the same compound, in data set [3] (10 mg/kg on NO prodrug basis), the “disease condition (modified RECIST), animal No. 1” value was “PD (PD = Progressive Disease (>30% tumor growth))”; the “disease condition (modified RECIST), animal No. 2” value is “Necrosis”; the “disease condition (modified RECIST), animal No. 3” value is listed as “PD (PD = Progressive Disease (>30% tumor growth))”; the “disease condition (modified RECIST), animal No. 4” value was “PD (PD = Progressive Disease (>30% tumor growth))”. Also, in data set [3] (10 mg/kg on NO prodrug basis), the “disease condition (modified RECIST), animal No. 5” value is recorded as “Necrosis” and the “disease condition (modified RECIST), animal No. 6” value is “PD (PD = Progressive Disease (>30% tumor growth))”. Further, the tumor size entry in data set [3] (JS-K i.v. six weeks after tumor cell implantation, sugar-NO1 s.c. same time frame, 10 mg/kg) was “approximately 1000 mm^3”. In data set [3] (within 7 weeks, tumor size exceeding 1000 mm^3 or necrosis of injection site on the tail), this compound yielded an animals euthanized of 100%. This compound returned an IC50 with MDA-MB-468 cells of 42000 ± 4000 nM.
With `CO[C@H]1/C=C\C=C(/C)C(=O)NC2=CC(=O)C(NCCN(C)C)=C(C[C@@H](C)C[C@H](OC)[C@H](O)[C@@H](C)/C=C(\C)[C@@H]1OC(N)=O)C2=O` [17-DMAG, 17-dimethylaminoethylamino-17-demethoxygeldanamycin], the IC50 in the data set with HUVEC cells (setting [7]) was 29000 nM; in the data set with 4T1.2 Neu cells, 296 nM; with B16F10 cells (72 h, Star-GA on GA basis) it was 250 nM; in the data set on A2058 cells (72 h, Star-GA on GA basis) it was 44 nM; in the data set on MDA-MB-231 cells, 189 nM. The “increase in in vitro toxicity in comparison to melphalan” value with B16F10 cells (B16F10 cell line) is listed as 400 fold. Also, the “physical signs of toxicities” value in the data set on B16F10 tumors (B16F10 study doses) is listed as “signs of tail necrosis”. Besides, the B16F10 tumor response result in the data set on B16F10 tumors is given as “did not exhibit statistically significant tumor growth inhibition”. Further, the survival result in the data set with 4T1.2 Neu tumors is on record as “neither 17-DMAG nor star-GA treatments exhibited an increase in survival”. Moreover, the “4T1.2 Neu tumor response compared to non-treated mice” value in the data set on 4T1.2 Neu tumors (polymer 255 mg/kg) was “no statistical significances”. For the same compound, in data set [4], the MTD is recorded as 15 mg/kg. Besides, in [5], the “gross visualization of the organs” value is “appeared to have liver metastases”.
`[N]=O` [nitric oxide]: in data set [6], the half-life in vivo entry is on record as “about 5 seconds”.
On to `C=CCNC1=C2C[C@@H](C)C[C@H](OC)[C@H](O)[C@@H](C)/C=C(\C)[C@H](OC(N)=O)[C@@H](OC)/C=C\C=C(/C)C(=O)NC(=CC1=O)C2=O` [17-AAG, 17-allylamino-17-demethoxygeldanamycin], for which the IC50 amounted to 64000 nM in the data set on HUVEC cells (setting [7]); 315 nM in the data set with 4T1.2 Neu cells; 825 nM with B16F10 cells (72 h, Star-GA on GA basis); 53 nM in the data set on A2058 cells (72 h, Star-GA on GA basis).
